Earlier results on one substance are cited in patent US4698328A, “Method of increasing bone mass” (The General Hospital Corporation, priority 1986, dated 1987).

The conditions of the data set: osteoporosis in humans; Reeve et al. 1980.

With “hPTH (1-34): fragment of human parathyroid hormone: first thirty-four amino acid residues (SVSEIQLMHNLGKHLNSMERVEWLRKKLQDVHNF; Parathyroid hormone; UniProt P01270 32-65, looked up, fragment)”, the axial trabecular bone result is listed as “considerable increase”; the “calcium retention, and hence total bone mass” value is on record as “improved in only about half of these patients”.
